Measurements published in PMC9475553, “SHF Acts as a Novel Tumor Suppressor in Glioblastoma Multiforme by Disrupting STAT3 Dimerization” (Advanced Science, 2022).

Assays:
global DNA methylation = assay: Global DNA methylation (5-mC ELISA) assay in U87 cells; format: cell-based, human; conditions: U87 cells treated with C16; n = 3, p < 0.01
Experimental: (§1) Figure 7 Peptide derived from the STAT3‐binding sites of SHF is an effective GBM suppressive strategy. A) Binding model between SHF and STAT3 using ZDOCK server. […] B) IF staining determined the cell penetrability and nuclear‐localization of C16. U251 cells were incubated with C16 or SC for 2 h and performed IF staining using the indicated antibodies. Bars, 10 µm. C) The statical analysis of adsorption equilibrium assay detecting the binding of C16 and SC with recombinant STAT3. D) Pull‐down assay indicating C16 binds STAT3. GST‐STAT3 was incubated with C16 or SC for 2 h, and the pull‐down assay was performed using Anti‐His magnetic beads. E) IP assay showing the effect of C16 on STAT3 dimerization. […] The relative quantification of STAT3 dimerization was listed. […] The relative quantification of STAT3/DNMT1 interaction was listed. […] The relative quantification of STAT3/DNMT1 interaction was listed. […] Positive cells were quantified 20 randomly selected fields per mouse (n = 6, Student's t‐test, **p < 0.01). […]
Global DNA methylation status was quantified by the MethylFlash Global DNA Methylation (5‐mC) ELISA Easy Kit (Epigentek, Brooklyn, NY). Levels of 5‐methylcytosine (5‐mC) were calculated according to the manufacturer's instructions. In brief, the purified and quantified genomic DNA were bound to strip‐wells treated for high DNA affinity. […]

STAT3 targeted genes = assay: qRT-PCR of STAT3 targeted genes in derived xenografts; format: in vivo, mouse; conditions: 10 µg i.p. once every 2 days, n = 6, p < 0.01
Experimental: as §1
Total RNA was extracted using TRIzol reagent (Invitrogen) according to the manufacturer's instructions. cDNA was synthesized with the M‐MLV Reverse Transcriptase Kit (Cwbio, Beijing, China). PCR analyses were conducted to quantify mRNA expression using Real SYBR Mixture (Cwbio) on a Lightcycler 480 II instrument (Roche Applied Science). […]

“C16: peptide spanning SHF amino acids 388–421, palmitic acid at the N-terminus, amidated C-terminus, 3× His tags added to the C-terminal (PFSSVPEIVHHYASRKLPIKGAEHMSLLYPVAIR; palmitic acid at the N-terminus; amidated C-terminus; left off: 3× His tags, C-terminal, kept)” was tested, and the “global DNA methylation” value (global DNA methylation) was “significant decrease” and the “STAT3 targeted gene expression in derived xenografts” value (STAT3 targeted genes) was “significantly down‐regulated”.
